Source: patent US20230091225A1, “Bifunctional chimeric heterocyclic compounds for targeted degradation of androgen receptors and use thereof” (HINOVA PHARMACEUTICALS INC., priority 2019, published 2023)
Read-outs that look alike come from different tables or passages of the source.

Target: T1, androgen receptor (AR) (Homo sapiens, UniProt P10275)
T1 sequence (P10275 1-920): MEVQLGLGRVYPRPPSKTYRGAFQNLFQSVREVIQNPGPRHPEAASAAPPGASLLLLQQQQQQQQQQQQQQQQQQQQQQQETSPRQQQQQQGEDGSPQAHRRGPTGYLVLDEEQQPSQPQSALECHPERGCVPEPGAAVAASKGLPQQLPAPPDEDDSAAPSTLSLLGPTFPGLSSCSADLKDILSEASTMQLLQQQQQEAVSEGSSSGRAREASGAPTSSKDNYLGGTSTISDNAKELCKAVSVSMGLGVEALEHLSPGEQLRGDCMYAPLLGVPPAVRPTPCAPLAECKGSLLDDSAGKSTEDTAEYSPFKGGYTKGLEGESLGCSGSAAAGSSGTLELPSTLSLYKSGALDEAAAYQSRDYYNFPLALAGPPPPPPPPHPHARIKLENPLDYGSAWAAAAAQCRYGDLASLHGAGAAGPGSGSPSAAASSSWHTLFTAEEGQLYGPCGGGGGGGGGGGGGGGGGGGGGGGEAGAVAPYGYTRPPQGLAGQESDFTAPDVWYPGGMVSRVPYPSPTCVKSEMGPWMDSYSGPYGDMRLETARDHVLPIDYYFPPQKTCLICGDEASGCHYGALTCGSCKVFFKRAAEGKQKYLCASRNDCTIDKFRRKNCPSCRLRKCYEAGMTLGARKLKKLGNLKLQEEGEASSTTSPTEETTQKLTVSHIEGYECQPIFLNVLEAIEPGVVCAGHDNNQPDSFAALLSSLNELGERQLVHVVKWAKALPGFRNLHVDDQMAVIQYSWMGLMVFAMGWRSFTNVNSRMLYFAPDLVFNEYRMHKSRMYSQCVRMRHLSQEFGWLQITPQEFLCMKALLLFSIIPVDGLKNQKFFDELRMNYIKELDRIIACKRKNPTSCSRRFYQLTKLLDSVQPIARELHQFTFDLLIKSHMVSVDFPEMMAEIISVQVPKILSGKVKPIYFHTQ
Assay: Degradation of androgen receptor (AR) protein in VCaP cells by ELISA
Type: cell-based
Conditions: for Dmax: VCaP

[1] = AR degradation, VCaP cells, 16 h, ELISA, Table 3-1, read-out: DC50
[2] = AR degradation, VCaP cells, 16 h, ELISA, Table 3-1, read-out: Dmax (%)

Structure (SMILES)	DC50 [1]	Dmax [2]	Dmax (%) (AR degradation, VCaP cells, 16 h, ELISA, Table 3-1)	DC50	Dmax
N#Cc1ccc(O[C@H]2CC[C@H](NC(=O)c3nnc(N4CCC(CN5CCC6(CC5)CN(c5ccc7c(c5)C(=O)N(C5CCC(=O)NC5=O)C7=O)C6)CC4)s3)CC2)cc1Cl (stereo partly shown) [Compound 243]				< 10 nM	> 80%
N#Cc1ccc(O[C@H]2CC[C@H](NC(=O)c3nnc(N4CCC(CN5CCC6(CC5)CN(c5cc7c(cc5F)C(=O)N(C5CCC(=O)NC5=O)C7=O)C6)CC4)s3)CC2)cc1Cl (stereo partly shown) [Compound 244]	< 10 nM				> 80%
N#Cc1ccc(O[C@H]2CC[C@H](NC(=O)c3cnn([C@H]4CC[C@H](CN5CCC6(CC5)CN(c5ccc7c(c5)C(=O)N(C5CCC(=O)NC5=O)C7=O)C6)CC4)c3)CC2)cc1Cl (stereo partly shown) [Compound 245]	10 to 100 nM				60 to 80%
N#Cc1ccc(O[C@H]2CC[C@H](NC(=O)c3cnn([C@H]4CC[C@H](CN5CCC6(CC5)CN(c5cc7c(cc5F)C(=O)N(C5CCC(=O)NC5=O)C7=O)C6)CC4)c3)CC2)cc1Cl (stereo partly shown) [Compound 246]	10 to 100 nM				60 to 80%
C[C@@H]1CN(C[C@@H]2[C@H]3CN(c4cc5c(cc4F)C(=O)N(C4CCC(=O)NC4=O)C5=O)C[C@@H]23)CCN1c1ccc(C(=O)N[C@H]2CC[C@H](Oc3ccc(C#N)c(Cl)c3)CC2)nn1 (stereo partly shown) [Compound 263]	< 10 nM	60 to 80%			
C[C@@H]1CN(C[C@@H]2[C@H]3CN(c4cc5c(cc4F)C(=O)N(C4CCC(=O)NC4=O)C5=O)C[C@@H]23)CCN1c1cnc(C(=O)N[C@H]2CC[C@H](Oc3ccc(C#N)c(Cl)c3)CC2)cn1 (stereo partly drawn) [Compound 264, N-((1r,4R)-4-(3-chloro-4-cyanophenoxy)cyclohexyl)-5-((2R)-4-((1R,5S,6s)-3-(2-(2,6-dioxopiperidin-3-yl)-6-fluoro-1,3-dioxoisoindolin-5-yl)-3-azabicyclo[3.1.0]n-hexane-6-yl)methyl-2-methylpiperazin-1-yl)pyrazine-2-carboxamide]	10 to 100 nM	60 to 80%			
C[C@@H]1CN(c2ccc(C(=O)N[C@H]3CC[C@H](Oc4ccc(C#N)c(Cl)c4)CC3)nn2)CCN1C[C@H]1[C@@H]2CN(c3cc4c(cc3F)C(=O)N(C3CCC(=O)NC3=O)C4=O)C[C@@H]21 (stereo partly shown) [Compound 265]	10 to 100 nM	60 to 80%			
C[C@@H]1CN(c2cnc(C(=O)N[C@H]3CC[C@H](Oc4ccc(C#N)c(Cl)c4)CC3)cn2)CCN1C[C@H]1[C@@H]2CN(c3cc4c(cc3F)C(=O)N(C3CCC(=O)NC3=O)C4=O)C[C@@H]21 (stereo partly drawn) [Compound 266, N-((1r,4R)-4-(3-chloro-4-cyanophenoxy)cyclohexyl)-5-((3R)-4-((1R,5S,6s)-3-(2-(2,6-dioxopiperidin-3-yl)-6-fluoro-1,3-dioxoisoindolin-5-yl)-3-azabicyclo[3.1.0]n-hexane-6-yl)methyl-3-methylpiperazin-1-yl)pyrazine-2-carboxamide]	10 to 100 nM	> 80%			
N#Cc1ccc(O[C@H]2CC[C@H](NC(=O)c3cnc(N4CCC(CN5CCC6(CC5)CN(c5cc7c(cc5F)C(=O)N(C5CCC(=O)NC5=O)C7=O)C6)CC4)nc3)CC2)cc1Cl (stereo partly shown) [Compound 268]	< 10 nM	> 80%			
N#Cc1ccc(O[C@H]2CC[C@H](NC(=O)c3cnc(N4CC5CN(CC6CCN(c7cc8c(cc7F)C(=O)N(C7CCC(=O)NC7=O)C8=O)CC6)CC5C4)nc3)CC2)cc1Cl (stereo partly shown) [Compound 272]	< 10 nM	> 80%			
N#Cc1ccc(O[C@H]2CC[C@H](NC(=O)c3cnc(N4CC5(CCN(C6CCN(c7cc8c(cc7F)C(=O)N(C7CCC(=O)NC7=O)C8=O)CC6)CC5)C4)nc3)CC2)cc1Cl (stereo partly shown) [Compound 273, N-((1r,4r)-4-(3-chloro-4-cyanophenoxy)cyclohexyl)-2-(7-(1-(2-(2,6-dioxopiperidin-3-yl)-6-fluoro-1,3-dioxoisoindolin-5-yl)piperidine-4-yl)-2,7-diazaspiro[3.5]nonan-2-yl)pyrimidine-5-carboxamide]	10 to 100 nM				60 to 80%
N#Cc1ccc(O[C@H]2CC[C@H](NC(=O)c3ccc(N4CCC(CN5CCC6(CC5)CN(c5ccc7c(c5)C(=O)N(C5CCC(=O)NC5=O)C7=O)C6)CC4)nn3)CC2)cc1Br (stereo partly shown) [Compound 274, N-((1r,4r)-4-(3-bromo-4-cyanophenoxy)cyclohexyl)-6-(4-((2-(2-(2-,2,6-dioxopiperidin-3-yl)-1,3-dioxoisoindolin-5-yl)-2,7-diazaspiro[3.5]nonan-7-yl)methyl)piperidin-1-yl)pyridazine-3-carboxamide]				< 10 nM	> 80%
Cc1cc(O[C@H]2CC[C@H](NC(=O)c3ccc(N4CCC(CN5CCC6(CC5)CN(c5ccc7c(c5)C(=O)N(C5CCC(=O)NC5=O)C7=O)C6)CC4)nn3)CC2)ccc1C#N (stereo partly shown) [Compound 275]				< 10 nM	> 80%
N#Cc1ccc(O[C@H]2CC[C@H](NC(=O)c3cnc(N4CCN(C5CC6(CCN(c7cc8c(cc7F)C(=O)N(C7CCC(=O)NC7=O)C8=O)CC6)C5)CC4)cn3)CC2)cc1Cl (stereo partly shown) [Compound 277, N-((1r,4r)-4-(3-chloro-4-cyanophenoxy)cyclohexyl)-5-(4-(7-(2-(2,6-dioxopiperidin-3-yl)-6-fluoro-1,3-dioxoisoindolin-5-yl)-7-azaspiro[3.5]nonan-2-yl)piperazin-1-yl)pyrazine-2-carboxamide]	10 to 100 nM	> 80%			

Further lines, with some results ahead:

DC50 [1]	Dmax [2]	Dmax (%) (AR degradation, VCaP cells, 16 h, ELISA, Table 3-1)	Structure (SMILES)	DC50	Dmax
< 10 nM	> 80%		N#Cc1ccc(O[C@H]2CC[C@H](NC(=O)c3ccc(N4CCC(CN5CCC6(CC5)CN(c5ccc7c(=O)n(C8CCC(=O)NC8=O)cnc7c5)C6)CC4)nn3)CC2)cc1Cl (stereo partly shown) [Compound 247]		
< 10 nM	> 80%		N#Cc1ccc(O[C@H]2CC[C@H](NC(=O)c3ccc(N4CCC5(CCN(CC6CCN(c7cc8c(cc7F)C(=O)N(C7CCC(=O)NC7=O)C8=O)CC6)CC5)CC4)nn3)CC2)cc1Cl (stereo partly shown) [Compound 261]		
< 10 nM	> 80%		N#Cc1ccc(O[C@H]2CC[C@H](NC(=O)c3ccc(N4CCC5(CCN(CC6CCN(c7ccc8c(c7)C(=O)N(C7CCC(=O)NC7=O)C8=O)CC6)CC5)CC4)nn3)CC2)cc1Cl (stereo partly shown) [Compound 262, N-((1r,4r)-4-(3-chloro-4-cyanophenoxy)cyclohexyl)-6-(9-((1-(2-(2,6-dioxopiperidin-3-yl)-1,3-dioxoisoindolin-5-yl)piperidine-4-yl)methyl)-3,9-diazaspiro[5.5]undecan-3-yl)pyridazine-3-formamide]		
< 10 nM	> 80%		N#Cc1ccc(O[C@H]2CC[C@H](NC(=O)c3cnc(N4CCC(CN5CCC6(CC5)CN(c5ccc7c(c5)C(=O)N(C5CCC(=O)NC5=O)C7=O)C6)CC4)nc3)CC2)cc1Cl (stereo partly shown) [Compound 267]		
< 10 nM	> 80%		N#Cc1ccc(O[C@H]2CC[C@H](NC(=O)c3ccc(N4CCC5(CC4)CC(N4CCN(c6cc7c(cc6F)C(=O)N(C6CCC(=O)NC6=O)C7=O)CC4)C5)nn3)CC2)cc1Cl (stereo partly shown) [Compound 269]		
< 10 nM	> 80%		N#Cc1ccc(O[C@H]2CC[C@H](NC(=O)c3ccc(N4CCN(C5CC6(CCN(c7cc8c(cc7F)C(=O)N(C7CCC(=O)NC7=O)C8=O)CC6)C5)CC4)nn3)CC2)cc1Cl (stereo partly shown) [Compound 270, N-((1r,4r)-4-(3-chloro-4-cyanophenoxy)cyclohexyl)-6-(4-(7-(2-(2,6-dioxopiperidin-3-yl)-6-fluoro-13-dioxoisoindolin-5-yl) -7-azaspiro[3.5]nonan-2-yl)piperazin-1-yl)pyridazine-3-formamide]		
< 10 nM	> 80%		N#Cc1ccc(O[C@H]2CC[C@H](NC(=O)c3ccc(N4CCN(C5CC6(CCN(c7ccc8c(c7)C(=O)N(C7CCC(=O)NC7=O)C8=O)CC6)C5)CC4)nn3)CC2)cc1Cl (stereo partly shown) [Compound 271, N-((1r,4r)-4-(3-chloro-4-cyanophenoxy)cyclohexyl)-6-(4-(7-(2-(2,6-dioxopiperidin-3-yl)-1,3-dioxoisoindolin-5-yl)-7-azaspiro[3.5]nonan-2-yl)piperazin-1-yl)pyridazine-3-formamide]		
< 10 nM	> 80%		COc1cc(O[C@H]2CC[C@H](NC(=O)c3ccc(N4CCC(CN5CCC6(CC5)CN(c5ccc7c(c5)C(=O)N(C5CCC(=O)NC5=O)C7=O)C6)CC4)nn3)CC2)ccc1C#N (stereo partly shown) [Compound 276, N-((1r,4r)-4-(4-cyano-3-methoxyphenoxy)cyclohexyl)-6-(4-((2-(2-(2,6-dioxopiperidin-3-yl)-1,3-dioxoisoindolin-5-yl)-2,7-diazaspiro[3.5]nonan-7-yl)methyl)piperidin-1-yl)pyridazine-3-carboxamide]		
< 10 nM		++++ (>80%)	N#Cc1ccc(OC2CCC(NC(=O)c3cnc(N4CCN(C5CC6(CCN(c7ccc8c(c7)C(=O)N(C7CCC(=O)NC7=O)C8=O)CC6)C5)CC4)cn3)CC2)cc1Cl (stereo not shown) [Compound 278, N-((1r,4r)-4-(3-chloro-4-cyanophenoxy)cyclohexyl)-5-(4-(7-(2-(2,6-dioxopiperidin-3-yl)-1,3-dioxoisoindolin-5-yl)-7-azaspiro[3.5]nonan-2-yl)piperazin-1-yl)pyrazine-2-carboxamide]		
